Where no end group is shown, it is not given here.
Assays:
[1] = test system: human colonic Caco2 (C2) cell monolayers; assay: Tight junction recovery after low-calcium disruption, ZO-1 confocal microscopy; type: cell-based; conditions: low-calcium medium (3 μM) 1 hour, assessed 2 hours after addition; AMP peptide 8 μg/ml, KGF-1 100 ng/ml, EGF 100 ng/ml
Procedure: The AMP77-97 peptide prevented decreases in TJ proteins and epithelial integrity seen after treatment of human colonic Caco2 (C2) cell monolayers with the oxidant monochloramine, which disrupts intercellular junctions (FIG. 2; C,D). These cells were exposed to low-calcium medium (3 μM) for 1 hr to disrupt TJs, and then allowed to recover in medium containing AMP77-97 peptide, epidermal growth factor (EGF) or keratinocyte growth factor (KGF-1) which are known epithelial cell mitogens that might facilitate recovery of disrupted TJs. […] At the molecular level, AMP77-97 peptide facilitates the formation of TJs by enhancing translocation of several proteins (protein kinase C-zeta, Par6, Cdc42, ECT2 and Par3) from the cytosol into TJ domains.
Localization of the tight junction protein ZO-1 was monitored by indirect immunofluorescence laser scanning confocal microscopy in confluent monolayers of C2 cells. […] To disrupt tight junctions, cells were switched to low-calcium medium (3 μM) for 1 hour. Then a growth factor at a known mitogenic concentration was added to the medium, and 2 hours later its effect on tight junction formation was assessed by confocal microscopy. Vehicle, AMP peptide (8 μg/ml), KGF-1 (100 ng/ml), and EGF (100 ng/ml) were compared.

[2] = test system: BDF-1 mice; conditions: mouse, in vivo
Procedure: AMP77-97 peptide (25 mg/kg, s.c.) was administered 5 days before and 10 days after radiation of the tongue in the BDF-1 mouse model of oral mucositis. Photomicrographs were prepared 10 days after radiation. Tissue from control irradiated mice treated with vehicle (saline) show substantial epithelial and connective tissue cell loss in both compartments compared to normal mouse tongue.
In Study 3, mucositis was induced in BDF-1 mice (n=40) by administering a single dose of radiation of 30 Gy to the snout. To evaluate the effect of AMP77-97 peptide in this setting of radiation-induced injury of the epithelial and connective tissue compartments of the tongue, mouse AMP77-97 peptide (25 mg/kg) was administered once daily subcutaneously before and after radiation (days −5 to 10; radiation on day 0). […] The evaluation was performed on day 10 when mucositis injury is at its peak. This effect on connective tissue supported that AMP77-97 peptide has beneficial effects on multiple cell and tissue types damaged by radiation.

[3] = test system: hamster cheek pouch; assay: Study 6: radiation-induced cheek pouch mucositis, topical dosing; type: in vivo; conditions: each of the hamster cheek pouch studies and the mouse model
Procedure: In a separate test of efficacy (Study 6), AMP77-97 peptide was administered topically into the hamster cheek pouch (n=32). Doses of 0.5, 5 or 50 mg/kg AMP77-97 peptide in PBS were placed in the pouch three times daily from days −5 to −1 before radiation and 1 to 15 after radiation.
Acute Radiation-induced Mucositis. Oral mucositis was induced in hamsters by administering a single dose of radiation of 40 Gy. On day 0, under anesthesia (intraperitoneal injection of ketamine [160 mg/kg] and xylazine [8 mg/kg]), the left buccal pouch was everted, fixed, and radiated while the rest of the animal was shielded with lead cover. Radiation was generated using a 160-kV potential (18.75-ma) source at a focal distance of about 21 cm, hardened with a 3-mm Al filtration system. Ionizing radiation was targeted at the left buccal pouch mucosa at a rate of 1.32 Gy/minute.
Mucositis Evaluation: The progression of mucositis was monitored daily for both models. Every other day starting on day 6 postirradiation, animals were anesthetized using inhalation anesthesia, and the left buccal pouch was everted and photographed. At the conclusion of the study's clinical phase, film was developed, and resulting photos were randomly numbered and then scored in blinded fashion by two observers. […] Severity of oral mucositis (OM) was calculated using the scores per treatment group on each observation day (mean±SE). […]

[4] = test system: BDF-1, C3H/OuJ, C3H/HeN, C57Bl/6 and Balb c mice; assay: Study 2: thickening of oral epithelium in five mouse strains; type: in vivo; conditions: Study 2, five mouse strains
Source text: In Study 2, the effect of AMP77-97 peptide on thickening in the oral epithelium was compared in five different strains of mice. […] Hyperkeratosis was again observed in the esophagus of BDF-1 mice, and was also seen in C3H/HeN mice.

[5] = test system: Syrian golden hamsters; assay: Study 1: epithelial thickening of oral mucosal surfaces in hamsters; type: in vivo, hamster; conditions: Study 1, hamsters
Procedure: (§1) The capacity of the AMP77-97 peptide to induce epithelial thickening of oral mucosal surfaces in mice and hamsters was studied to determine if these animals could be used to evaluate the potential of AMP77-97 peptide in the treatment of oral mucositis. In Study 1, female BDF-1 mice (n=8) and Syrian golden hamsters (n=8) were given daily subcutaneous injections of saline, mouse AMP77-97 peptide at 5 mg/kg, or 25 mg/kg for five days. […] There also appeared to be an increase in both hyperplasia and hyperkeratosis with increasing dose (more prevalent/pronounced in the animals receiving 25 mg/kg than those receiving 5 mg/kg) and duration of dosing (there were some effects seen at 2 days, but were more readily seen after 5 consecutive days). The effect was more easily observed on the dorsal than the ventral surface of the tongue.

[6] = test system: BDF-1 mice; assay: Study 1: epithelial thickening of oral mucosal surfaces in mice; type: in vivo; conditions: Study 1, mice
Procedure: as §1

In the case of “EGF: epidermal growth factor, known epithelial cell mitogen [reference compound]”, the “formation of new tight junctions / localization of ZO-1” value [1] was “persistent separation of cells with TJ disruption and apparent loss of ZO-1”.

With “LDALVKEKKLQGKGPGGPPPK [AMP77-97 peptide]” the toxicity [2] was “no evidence of any toxicity”, the “toxicity as measured by weight loss or mortality” value [3] was “no signs of toxicity” and the “toxicity (weight gain, mortality)” value [4] was “no evidence of any toxicity”. For the same substance, the “toxicity (weight gain, mortality)” value [5] was “no evidence of any toxicity” and the “toxicity (weight gain, mortality)” value [6] was “no evidence of any toxicity”.
